Columns and labels:
[1] = tested on: Balb/c mice, whole body radiation 1 Gy; assay: Blood immune cell counts (CBC) in radiation-induced leukopenia (RIL) ARS model; assay type: in vivo, mouse
Excerpt: Balb/c mice (9-week-old male) were purchased from Koatech (Pyeongtaek, Republic of Korea) and maintained in a specific pathogen-free (SPF) environment to establish an animal model of acute radiation syndrome. In order to evaluate the effect of PLAG on the reduction of immune cells by radiation, the following three groups were constructed for this study. (1) normal control group (positive control); (2) Radiotherapy-Radiation induced leukopenia (RIL) group (negative control group); And (3) RIL+PLAG treated group (experimental group).
Specifically, mice treated with RIL and […] were exposed to whole body radiation at 1 Gy (100 rad=1.06 min). For the RIL+PLAG treatment group, 50 mg/kg/day of PLAG (Enzychem Lifesciences Co., Daejeon, Republic of Korea) was orally administered daily for 4 consecutive days after irradiation. The normal controls were not exposed to radiation. On the 5th day after irradiation, blood samples were collected, and then Complete Blood Count (CBC) was measured using a Mindray BC-5300 auto hematology analyzer (Shenzhen Mindray Bio-medical Electronics, China) so that the number of blood leukocytes, neutrophils and lymphocytes in blood could be counted (FIG. 1).

[2] = tested on: HaCaT (human keratinocyte) cells; assay: Radiation-induced DAMP (HMGB1) release from HaCaT cells; assay type: cell-based; conditions: γ-irradiated HaCaT cells
Method: The radiation-induced DAMP removal was evaluated in HaCaT (human keratinocyte) cells exposed with γ-radiation from a ^60Co radiation source (0.833 Gy/minute). As one type of DAMPs, high-mobility group box 1 (HMGB1) was used as a biomarker to establish the mitigating effect of EC-18 against radiation. HMGB1 proportionally secreted as the radiation dosage (5 to 10 Gy) and exposure time (24 to 48 hrs) increased (FIG. 33A).

[3] = tested on: CXCL8; assay: CXCL8 release in HaCaT cells treated with CM or rhHMGB1; assay type: cell-based, human
Method: An additional experiment was tested for assessing whether EC-18 treatment leads to early termination of the RIPK1/3-MLKL-mediated downstream necroptosis pathway. This was performed by using DAMP-containing conditioned media (CM) harvested from HaCaT cells, irradiated for 48 hrs, and analyzed after 2 or 72 hrs of EC-18 treatment. […] To further confirm that DAMPs in CM contribute to the activation of a necroptosis signaling pathway in a paracrine manner, recombinant human HMGB1 (rhHMGB1) was treated directly to the normal HaCaT cells. The rhHMGB1 elevated the phosphorylation of RIPK1/3 and MLKL after 2 hrs and subsequently released HMGB1 and HSP90 (FIGS. 35C-35D). To evaluate whether EC-18 mitigates the activation of RIPK1/3 and MLKL, 10 or 100 μg/mL of EC-18 was treated before the addition of CM or rhHMGB1. As a result, EC-18 lowered the phosphorylation of RIPK/3 and MLKL in both CM- and rhHMGB1-treated cells after 2 hrs. Release of HMGB1 and Hsp90 was also subsided by EC-18 after 72 hrs of post addition of CM or rhHMGB1 to the cells (FIGS. 35A-35D). TLR4-induced necroptosis signaling pathway caused by DAMP release produces cytokines, such as CXCL8, a chemotactic cytokine for neutrophils. As CXCL8 increases upon tissue damage, it was measured in cells treated with CM or rhHMGB1 as a measure of inflammation. CXCL8 of CM from cells treated with chemo and radiotherapy was used for this evaluation. […] Moreover, rhHMGB1 increased the production of CXCL8, modulated by EC-18.

[4] = tested on: Balb/c mice, TBI; assay: Estimation of dose reduction factor (DRF); assay type: in vivo, mouse
Method: Analysis of several TBI, 24-hr delayed administration of EC-18 at 250 mg/kg in Balb/c mice yields an estimate of the dose reduction factor (DRF) of EC-18.

[5] = tested on: Balb/c mice, 6.11 Gy gamma-radiation; assay: Radiation-induced pneumonitis mouse model: lung damage; assay type: in vivo; conditions: 50 or 250 mg/kg daily Day 0 to 3
Method: To examine the effect of EC-18 on the lung damage in pneumonitis, female Balb/c mice (n=3/group) were exposed to 6.11 Gy of gamma-radiation at Day 0. EC-18 at 50 or 250 mg/kg was administered daily from Day 0 to 3. To verify the vascular leakage of the lung due to radiation exposure, Evans blue staining was diluted with PBS and injected i.v. into mice 30 mins before sacrificing them on Day 3 (FIG. 56).
The further microscopical analysis was conducted by extracting the lung after sacrificing the mice. The perfused lung tissues were fixed in 10% buffered formalin for 24 hrs, embedded in paraffin, sectioned at 4 μm, and stained with hematoxylin and eosin (H&E) staining. […] In contrast, the infiltration of the RBCs into the lung tissues was not observed in both the EC-18-treated group.

[6] = Plasma protein binding by rapid equilibrium dialysis, human
Method: The plasma protein binding ability of EC-18 was tested by rapid equilibrium dialysis (RED). The chamber separated by a dialysis tubing membrane (cut-off: 8 kDa) was filled on one side with rat or human plasma mixed with phosphate buffer and on the other side with rat or human plasma mixed with the test or standard reference material (test concentration: 1 μM).

[7] = tested on: Beagle dog; assay: Single-dose toxicity, Beagle dog; assay type: in vivo; conditions: Oral, Days 1, 5, 9, 13
Excerpt: (§1) Various toxicology studies have been performed. All studies were GLP-compliant unless otherwise noted.

[8] = tested on: ICR mouse; assay: Micronucleus assay; assay type: in vivo; conditions: Oral; Single; 0, 500, 1000, 2000 mg/kg
Excerpt: as §1

[9] = Embryo-fetal developmental toxicity study, NZW rabbit; assay type: in vivo; conditions: NZW, rabbit, in vivo; definitive study; Oral 13 days
Excerpt: as §1

[10] = tested on: NZW rabbit; assay: as above; assay type: in vivo; conditions: Oral 13 days
Excerpt: as §1

[11] = RIL + PLAG 50 mg/kg/day oral 4 days, day 5, n=3

CCCCC/C=C\C/C=C\CCCCCCCC(=O)OC(COC(C)=O)COC(=O)CCCCCCCCCCCCCCC (stereo not drawn) [EC-18, 1-palmitoyl-2-linoleoyl-3-acetylglycerol]
increase of blood leukocyte count vs RIL group ([1]; PLAG 50 mg/kg/day, day 5): 63% | increase of blood lymphocyte count vs RIL group ([1]; PLAG 50 mg/kg/day, day 5): 85% | increase of blood neutrophil count vs RIL group ([1]; PLAG 50 mg/kg/day, day 5): 34% | Lymphocyte [1, 11]: 2.2±0.42 10^3/μL | Neutrophils [1, 11]: 1.17±0.35 10^3/μL | White blood cells [1, 11]: 3.56±0.84 10^3/μL | HMGB1 release [2]: less HMGB1 released in a dose-dependent manner | CXCL8 level ([3]; CM-treated cells): decreased in a dose-dependent manner | CXCL8 production ([3]; rhHMGB1-treated cells): modulated | DRF at LD30/30 ([4]; 250 mg/kg): 1.45 | DRF at LD70/30 ([4]; 250 mg/kg): 1.18 | DRF at LD95/30 ([4]; 250 mg/kg): 1.05 | LD Estimate LD30/30, Presence of EC-18 ([4]; 250 mg/kg): 5.26 Gy | LD Estimate LD50/30, Presence of EC-18 ([4]; 250 mg/kg): 5.50 Gy | LD Estimate LD70/30, Presence of EC-18 ([4]; 250 mg/kg): 5.76 Gy | LD Estimate LD95/30, Presence of EC-18 ([4]; 250 mg/kg): 6.09 Gy | Lethality, Presence of EC-18 ([4]; 6.11 Gy, 250 mg/kg 24-hr delayed): 6/40 (15%) | Lethality, Presence of EC-18 ([4]; 6.5 Gy, 250 mg/kg 24-hr delayed): 8/20 (40%) | Lethality, Presence of EC-18 ([4]; 7 Gy, 250 mg/kg): 10/10 (100%) | Lethality, Presence of EC-18 ([4]; 8 Gy, 250 mg/kg): 10/10 (100%) | Lethality, Presence of EC-18 ([4]; 10 Gy, 250 mg/kg): 4/4 (100%) | infiltration of RBCs into the lung tissues (H&E) [5]: not observed | vascular leakage of the lung (Evans blue) [5]: mitigated the vascular leakage | Plasma Protein Binding Rate ([6]; Humans, 1 μM, 4 hrs RED, n=3): >99% | fraction unbound at 4 hrs, 1 μM ([6]; human, plasma): < 0.01 | Approximate lethal dose [7]: dose: >2000 mg/kg | mortality ([7]; 0, 500, 1000, 1500, 2000 mg/kg): No dead animals | findings ([7]; up to 2000 mg/kg): No specific findings | micronucleus induction in mouse bone marrow cells [8]: EC-18 does not affect | NOAEL at 13 days [9]: 500 mg/kg/day | findings ([10]; DRF study, 0, 125, 250, 500 mg/kg): No specific findings | mortality ([10]; DRF study, 250 mg/kg dose group, day 8 of pregnancy, attributed to loss of appetite before dosing): A single case of death | mortality ([10]; definitive study, 0, 125, 250, 500 mg/kg): No dead animals

— patent publication US12076307B2, “Compositions for prevention or treatment of acute radiation syndrome and other radiation exposure” (priority 2017, dated 2024)
